# ChEMBL document CHEMBL5352385, “Marine natural products and their synthetic analogs as promising antibiofilm agents for antibiotics discovery and development” (Eur J Med Chem, 2022)
# Legend:
# Staphylococcus aureus [1] = assay: Antibiofilm activity against Staphylococcus aureus ATCC 6538 assessed as reduction in biofilm formation at 50 ug/ml measured after 24 hrs by crystal violet staining based analysis relative to control; type: functional; design: scale not given: the % may be the effect or the level left; settings: dose 50 µg/ml
# Streptococcus mutans [2] = assay: Antibiofilm activity against clinical isolate Streptococcus mutans 2.M7/4 assessed as inhibition of biofilm formation at 31.0 ug/ml relative to control; type: functional; design: scale not given: the % may be the effect or the level left; settings: dose 31 µg/ml
# Streptococcus mutans [3] = assay: Antibiofilm activity against Streptococcus mutans UA159 assessed as inhibition of biofilm formation at 31.0 ug/ml relative to control; type: functional; design: scale not given: the % may be the effect or the level left; settings: dose 31 µg/ml
# Candida albicans = assay: Antibiofilm activity against Candida albicans assessed as reduction in biofilm formation at 200 ug/ml measured after 48 hrs by crystal violet staining based analysis relative to control; type: functional; design: scale not given: the % may be the effect or the level left; settings: dose 200 µg/ml
# [4] = Inhibition of quorum sensing system in Pseudomonas aeruginosa PA01 transfected with […]
# [5] = Inhibition of quorum sensing system in Pseudomonas aeruginosa PA01 transfected with lasB-gfp
# Staphylococcus aureus [6] = assay: Antibiofilm activity against methicillin-resistant Staphylococcus aureus ATCC 6538 at 100 ug/ml incubated for 24 hrs by crystal violet staining based microplate reader method relative to control; type: functional; settings: dose 100 µg/ml
# [7] = system: Staphylococcus epidermidis; assay: Antibiofilm activity against Staphylococcus epidermidis RP62A; type: functional
# Micrococcus luteus = assay: Antibiofilm activity against Micrococcus luteus at 31.25 ug/ml incubated for 48 hrs by crystal violet staining based analysis relative to control; type: functional; settings: dose 31.25 µg/ml
# [8] = system: Pseudooceanicola batsensis; assay: Antibiofilm activity against Pseudooceanicola-batsensis at 31.25 ug/ml incubated for 48 hrs by crystal violet staining based analysis relative to control; type: functional; settings: dose 31.25 µg/ml
# Marinobacter nauticus = assay: Antibiofilm activity against Marinobacter hydrocarbonoclasticus at 31.25 ug/ml incubated for 24 hrs by crystal violet staining based analysis relative to control; type: functional; settings: dose 31.25 µg/ml
# Staphylococcus aureus [9] = assay: Antibiofilm activity against Staphylococcus aureus ATCC 25923 after 24 hrs by crystal violet staining based assay; type: functional, organism-based; settings: ATCC 25923, 24 h
# Staphylococcus aureus [10] = assay: Antibiofilm activity against Staphylococcus aureus ATCC 6538 after 24 hrs by crystal violet staining based assay; type: functional, organism-based; settings: ATCC 6538, 24 h
# Staphylococcus aureus [11] = assay: Antibiofilm activity against Staphylococcus aureus ATCC 6538 at 100 ug/ml incubated for 24 hrs by crystal violet staining based microplate reader method relative to control; type: functional; settings: dose 100 µg/ml
# Staphylococcus aureus [12] = assay: Antibiofilm activity against Staphylococcus aureus ATCC 6538 at 6.25 ug/ml relative to control; type: functional; settings: dose 6.25 µg/ml
# Pseudomonas aeruginosa [13] = assay: Antibiofilm activity against Pseudomonas aeruginosa ATCC 15442 after 24 hrs by crystal violet staining based assay; type: functional, organism-based; settings: ATCC 15442, 24 h
# Staphylococcus aureus [14] = assay: Antibiofilm activity against methicillin-resistant Staphylococcus aureus CH 10850 at 100 ug/ml relative to control; type: functional; settings: dose 100 µg/ml
# Staphylococcus aureus [15] = assay: Antibiofilm activity against methicillin-resistant Staphylococcus aureus CH 10850 at 50 ug/ml relative to control; type: functional; settings: dose 50 µg/ml
# Staphylococcus aureus [16] = assay: Antibiofilm activity against Staphylococcus aureus ATCC 6538 at 12.5 ug/ml relative to control; type: functional; settings: dose 12.5 µg/ml
# Streptococcus mutans [17] = assay: Antibiofilm activity against Streptococcus mutans UA159 assessed as inhibition of biofilm formation; type: functional, organism-based
# Pseudomonas aeruginosa [18] = assay: Antibiofilm activity against Pseudomonas aeruginosa assessed as inhibition of biofilm formation at 100 ug/ml incubated for 24 hrs by crystal violet staining based analysis relative to control; type: functional; design: scale not given: the % may be the effect or the level left; settings: dose 100 µg/ml
structure (smiles),measurement,setting,value
COc1cc(-c2ccccn2)nc2cnsc12,Activity,Staphylococcus aureus [1],>50%
CCCCCCCCC[C@H](CC(=O)NCCCN)N1CC(=O)N[C@@H](Cc2ccccc2)C1=O,Activity,Streptococcus mutans [2],34.8%
same,Activity,Streptococcus mutans [3],90%
C/C=C/CCCC(C)/C(O)=C1\C(=O)[C@@H](C(C)O)N(C)C1=O (stereo not given in full),Activity,Candida albicans,80%
O=C(NCCSSCCNC(=O)/C(Cc1cc(Br)c(O)c(-c2cc(C/C(=N\O)C(=O)NCCSSCCNC(=O)/C(Cc3ccc(O)c(Br)c3)=N/O)cc(Br)c2O)c1)=N\O)/C(Cc1ccc(O)c(Br)c1)=N\O,IC50,[4],8.7 µM
same,IC50,[5],8.53 µM
CC(=O)OCC1=C[C@]2(C=C(C)C[C@@H](/C=C(\C)CCC=C(C)C)O2)O[C@@H]2C=C(C)C(=O)C[C@H]12,Activity,Staphylococcus aureus [6],50%
CCCCC/C=C/C(=O)CCCCCCCCCC(=O)O,MBIC,[7],16 µg/mL
C=C1CCC(Br)C(C)(C)C1C[C@@]12OC(C)(C)[C@H](Cl)C=C1C(=O)c1c(O)cc(O)cc1C2=O (stereo not given in full),Activity,Micrococcus luteus,100%
same,Activity,[8],26.2%
same,Activity,Marinobacter nauticus,59.3%
COCCn1cc(-c2csc(-c3cn(C(=O)OC(C)(C)C)c4ccccc34)n2)c2cccnc21,IC50,Staphylococcus aureus [9],3.7 µM
same,IC50,Staphylococcus aureus [10],14.5 µM
CC(C)=CCC/C(C)=C/[C@@H]1CC(C)=C[C@]2(C=C(CO)[C@H]3C[C@@H](O)C(C)=C[C@H]3O2)O1,Activity,Staphylococcus aureus [11],>95%
CC(C)(C)OC(=O)NCCn1cc(-c2nc(-c3c[nH]c4ncccc34)cs2)c2ccccc21,IC50,Staphylococcus aureus [9],8.4 µM
same,IC50,Staphylococcus aureus [10],11.3 µM
COC(=O)[C@@]12Oc3ccc(-c4ccc5c(c4O)C(=O)C4=C(O)C[C@H](C)[C@H](O)[C@]4(C(=O)OC)O5)c(O)c3C(=O)C1=C(O)C[C@H](C)[C@@H]2O [SECALONIC ACID B],Activity,Staphylococcus aureus [12],>90%
CCCCCCC(C)/C(O)=C1\C(=O)[C@H](C(C)O)N(C)C1=O (stereo not given in full),Activity,Candida albicans,80%
COCCn1cc(-c2nc(-c3c[nH]c4ncccc34)cs2)c2cc(Br)ccc21,IC50,Staphylococcus aureus [9],1.7 µM
same,IC50,Pseudomonas aeruginosa [13],9.7 µM
same,IC50,Staphylococcus aureus [10],20.7 µM
C[C@H]1C(=O)O[C@@H]2OC[C@@H]3CCC([C@@]4(C)CCCC(C)(C)C4)=C1[C@@H]32,Activity,Staphylococcus aureus [14],85.4%
CC(C)=CCC/C(C)=C\C[C@@]12OC(C)(C)[C@H](Cl)C=C1C(=O)c1c(cc(O)c(C)c1O)C2=O,Activity,Marinobacter nauticus,23.4%
COC(=O)[C@H](C)c1c([C@@]2(C)CCCC(C)(C)C2)ccc2c1[C@H](O)OC2=O,Activity,Staphylococcus aureus [15],97.8%
CC1=C2C(=CO[C@H](C)[C@H]2C)C(O)=C(C(=O)O)C1=O [CITRININ],Activity,Staphylococcus aureus [16],>50%
COC(=O)[C@@]12Oc3ccc(-c4ccc5c(c4O)C(=O)C4=C(O)C[C@H](C)[C@@H](O)[C@]4(C(=O)OC)O5)c(O)c3C(=O)C1=C(O)C[C@H](C)[C@H]2O,Activity,Staphylococcus aureus [12],97%
Cc1c(O)cc2c(c1O)C(=O)[C@@]1(Cl)C[C@@H](Cl)C(C)(C)O[C@@]1(CC1C(C)(C)C(Cl)CC[C@@]1(C)O)C2=O (stereo not given in full),Activity,Marinobacter nauticus,25.1%
C=C(C)C(O)CC/C(C)=C/C[C@@]12OC(C)(C)[C@H](Cl)C[C@]1(Cl)C(=O)c1c(O)cc(O)cc1C2=O (stereo not given in full),Activity,Micrococcus luteus,97%
same,Activity,[8],13.4%
same,Activity,Marinobacter nauticus,56.9%
CCCCC/C=C/C(=O)CCCCCCCC(=O)O,MBIC,[7],>128 µg/mL
C=C(C)C(=O)CC/C(C)=C\C[C@@]12OC(C)(C)[C@H](Cl)C=C1C(=O)c1c(O)cc(O)cc1C2=O,Activity,Micrococcus luteus,87.3%
same,Activity,Marinobacter nauticus,43.4%
C=C1CCC(Cl)C(C)(C)C1C[C@@]12OC(C)(C)[C@H](Cl)C[C@]1(Cl)C(=O)c1c(cc(O)c(C)c1O)C2=O (stereo not given in full),Activity,Marinobacter nauticus,48.2%
COc1ccc(CNC2=CC3=NCCc4cn(S(=O)(=O)c5ccc(C)cc5)c(c43)C2=O)cc1OC,IC50,Streptococcus mutans [17],2.6 µM
Cc1ccc(S(=O)(=O)n2cc3c4c2C(=O)C(NCCc2ccc5c(c2)COC5)=CC4=NCC3)cc1,IC50,Streptococcus mutans [17],0.4 µM
CCC(C)C(=O)NCCc1ccccc1 (stereo not given),Activity,Pseudomonas aeruginosa [18],50.6%
CCCCCCCCC[C@H](CC(=O)NCCCCN)N1CC(=O)N[C@@H](Cc2ccccc2)C1=O,Activity,Streptococcus mutans [2],34.8%
same,Activity,Streptococcus mutans [3],90%
CC(=O)O[C@H]1C[C@@H]2C(CO)=C[C@]3(C=C(C)C[C@@H](/C=C(\C)CCC=C(C)C)O3)O[C@@H]2C=C1C,Activity,Staphylococcus aureus [6],50%
